In patent US12364702B2, “Highly active sting protein agonist compound” (ADLAI NORTYE BIOPHARMA CO., LTD., priority 2018, dated 2025):
Read-outs that look alike come from different tables or passages of the source.

Tests used:
Assay type in all cases: cell-based
STING WT variant [1] = target: T1, STING WT variant (Homo sapiens, UniProt Q86WV6); experiment: SEAP reporter assay in HEK-Blue ISG KO-STING cells transfected with STING WT variant (Method 2); parameters: key: ratio of compound SEAP signal to 0.5% DMSO; conditions: 1 ng STING vector (WT variant), compound 2.5 uM, 24 h, SEAP signal vs 0.5% DMSO
T1 construct: host or cells: HEK-Blue ISG KO-STING cells (Invivogen, hkb-kostg)
Description: (§1) Activation of STING can be determined using a SEAP reporter assay in HEK-Blue™ ISG KO-STING cells (Invivogen, cat #hkb-kostg) transfected with plasmids expressing STING variants (WT & HAQ) (referred to WO2017/175147A1). STING variants (WT & HAQ) vector were constructed based on STING-232H vector (Origene, RC208418). GFP vector (VT2069) was bought from Youbio. The detailed protocol as follows: HEK-Blue™ ISG KO-STING cells were harvest and seeding into 96 well plate and the final cell number was 0.8×10^5 cells/well. Transfections were prepared using Lipofectamine 2000 (Invitrogen, Cat #11668-027) following the manufacturer's instructions (Lipo2000/DNA=1/10), 20 ul of transfection suspension containing 1 ng (WT variant) or 0.0625 ng (HAQ variant) STING vector was added to cell culture plate and incubated at 37° C., 5% CO2 for 24 hours. After 24 hours incubation, compounds were added at proper concentration, the final DMSO concentration was 0.5%. After 24 h incubation, the supernatant was collected to detect SEAP signal using Great EscAPe SEAP chemiluminescence KIT (Clontech, cat #631738) and cells were collected to detect cell viability using CellTiter-Glo Luminescent Cell Viability Assay (Promega, cat #G7573) following the manufacturer's instructions. The data were described by the ratio of the stimulating signal of compounds to 0.5% DMSO.

STING HAQ variant [2] = target: T2, STING HAQ variant (Homo sapiens, UniProt Q86WV6, G230A/R293Q/R71H); experiment: SEAP reporter assay in HEK-Blue ISG KO-STING cells transfected with STING HAQ variant (Method 2); parameters: key: ratio of compound SEAP signal to 0.5% DMSO; conditions: 0.0625 ng STING vector (HAQ variant), compound 5 uM, 24 h, SEAP signal vs 0.5% DMSO
T2 construct: host or cells: HEK-Blue ISG KO-STING cells (Invivogen, hkb-kostg)
T2 sequence (Q86WV6 whole entry R71H/G230A/R293Q): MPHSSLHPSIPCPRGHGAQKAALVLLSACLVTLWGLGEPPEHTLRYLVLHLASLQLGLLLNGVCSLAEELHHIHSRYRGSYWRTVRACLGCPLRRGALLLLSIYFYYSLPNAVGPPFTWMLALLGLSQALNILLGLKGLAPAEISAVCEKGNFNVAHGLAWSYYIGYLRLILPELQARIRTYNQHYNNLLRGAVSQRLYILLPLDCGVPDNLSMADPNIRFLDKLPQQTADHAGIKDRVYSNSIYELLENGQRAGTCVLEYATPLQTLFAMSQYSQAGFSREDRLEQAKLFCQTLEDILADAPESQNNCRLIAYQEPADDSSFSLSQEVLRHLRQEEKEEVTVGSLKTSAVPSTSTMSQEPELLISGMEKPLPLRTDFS
Description: as §1

STING = STING (Homo sapiens, UniProt Q86WV6); experiment: IFN-β secretion from THP1 by STING activation (hIFNβ ELISA)
Chain of STING (Q86WV6 whole entry): as the sequence (Q86WV6 whole entry R71H/G230A/R293Q) above, with H71R, A230G, Q293R counted along it
Summary of the method: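 THP1 cells (2×10^6 cells/ml) exposed 24 h at 37° C, 5% CO2 to 8-point, 3-fold compound dilutions, 0.2% DMSO final, top dose set by solubility. Secreted IFN-β in supernatant measured by human IFNβ ELISA; EC50 from curve fitting.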

STING WT variant [3] = target: T1, STING WT variant; experiment: SEAP reporter assay in HEK-Blue ISG KO-STING cells transfected with STING WT variant (Method 1); conditions: 24 h, SEAP signal vs 0.5% DMSO
Summary of the method: (§2)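 HEK-Blue ISG KO-STING cells transfected with 1 ng STING variant plasmid for 24 h at 37 °C, then compound-treated 24 h (0.5% DMSO final). SEAP chemiluminescence read in supernatant; viability by CellTiter-Glo. Values are compound signal relative to 0.5% DMSO.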

STING HAQ variant [4] = target: T2, STING HAQ variant; experiment: SEAP reporter assay in HEK-Blue ISG KO-STING cells transfected with STING HAQ variant (Method 1); conditions: 24 h, SEAP signal vs 0.5% DMSO
Summary of the method: as §2

[5] = THP1 cells; 24 h incubation; IFN-β in supernatant; top dose set according to solubility; read-out: hIFNβ ELISA (EC50)
[6] = 1 ng STING vector, compound 2.5 uM
[7] = 1 ng STING vector, compound 5 uM

Row | SMILES | Fold change related to DMSO control WT (STING WT variant [1]) | Fold change related to DMSO control HAQ (STING HAQ variant [2]) | EC50 (STING; [5]) [µM] | also measured
1 | CCn1nc(C)cc1C(=O)Nc1nc2cc(C(N)=O)cc(OCCCNC(=O)CN3CC(OC)C3)c2n1CCC[C@H]1COc2cc(C(N)=O)cc3nc(NC(=O)c4cc(C)nn4CC)n1c23 [Example 43, (S)-3-(3-(5-carbamoyl-2-(1-ethyl-3-methyl-1H-pyrazole-5-carboxamido)-7-(3-(2-(3-methoxyazetidin-1-yl)acetamido)propoxy)-1H-benzo[d]imidazol-1-yl)propyl)-2-(1-ethyl-3-methyl-1H-pyrazole-5-carboxamido)-3,4-dihydro-5-oxa-1,2a-diazaacenaphthylene-7-carboxamide] | 7.12 | 19.89 | 4.6 | 
2 | CCn1nc(C)cc1C(=O)Nc1nc2cc(C(N)=O)cc(OCCCNC(=O)CN3CC[C@@H](OC)C3)c2n1CCC[C@H]1COc2cc(C(N)=O)cc3nc(NC(=O)c4cc(C)nn4CC)n1c23 [Example 39, (S)-3-(3-(5-carbamoyl-2-(1-ethyl-3-methyl-1H-pyrazole-5-carboxamido)-7-(3-(2-((R)-3-methoxypyrrolidin-1-yl)acetamido)propoxy)-1H-benzo[d]imidazol-1-yl)propyl)-2-(1-ethyl-3-methyl-1H-pyrazole-5-carboxamido)-3,4-dihydro-5-oxa-1,2a-diazaacenaphthylene-7-carboxamide] | 11.39 | 16.45 | 2.2 | 
3 | CCn1nc(C)cc1C(=O)Nc1nc2cc(C(N)=O)cc(OCCCO)c2n1CCC[C@H]1CN(C)c2cc(C(N)=O)cc3nc(NC(=O)c4cc(C)nn4CC)n1c23 [Example 57, (S)-4-(3-(5-carbamoyl-2-(1-ethyl-3-methyl-1H-pyrazole-5-carboxamido)-7-(3-hydroxypropoxy)-1H-benzo[d]imidazol-1-yl)propyl)-2-(1-ethyl-3-methyl-1H-pyrazole-5-carboxamido)-6-methyl-5,6-dihydro-4H-imidazo[1,5,4-de]quinoxaline-8-carboxamide] | 11.24 | 23.35 | 2.6 | 
4 | CCn1nc(C)cc1C(=O)Nc1nc2cc(C(N)=O)cc(OCCCNS(=O)(=O)C3CCNCC3)c2n1CCC[C@H]1COc2cc(C(N)=O)cc3nc(NC(=O)c4cc(C)nn4CC)n1c23 [Example 45, (S)-3-(3-(5-carbamoyl-2-(1-ethyl-3-methyl-1H-pyrazole-5-carboxamido)-7-(3-(piperidine-4-sulfonamido)propoxy)-1H-benzo[d]imidazol-1-yl)propyl)-2-(1-ethyl-3-methyl-1H-pyrazole-5-carboxamido)-3,4-dihydro-5-oxa-1,2a-diazaacenaphthylene-7-carboxamide] | 4.43 | 21.63 | > 50 | 
5 | CCn1nc(C)cc1C(=O)Nc1nc2cc(C(N)=O)cc(OCCCNC(=O)CN3CCOCC3)c2n1CCC[C@H]1COc2cc(C(N)=O)cc3nc(NC(=O)c4c(F)c(C)nn4CC)n1c23 [Example 53, (S)-3-(3-(5-carbamoyl-2-(1-ethyl-3-methyl-1H-pyrazole-5-carboxamido)-7-(3-(2-morpholinoacetamido)propoxy)-1H-benzo[d]imidazol-1-yl)propyl)-2-(1-ethyl-4-fluoro-3-methyl-1H-pyrazole-5-carboxamido)-3,4-dihydro-5-oxa-1,2a-diazaacenaphthylene-7-carboxamide] | 10.85 | 17.39 | 1.2 | 
6 | CCn1nc(C)cc1C(=O)Nc1nc2cc(C(N)=O)cc(OCCCNC(=O)CN(C)C)c2n1CCC[C@H]1COc2cc(C(N)=O)cc3nc(NC(=O)c4c(F)c(C)nn4CC)n1c23 [Example 52, (S)-3-(3-(5-carbamoyl-7-(3-(2-(dimethylamino)acetamido)propoxy)-2-(1-ethyl-3-methyl-1H-pyrazole-5-carboxamido)-1H-benzo[d]imidazol-1-yl)propyl)-2-(1-ethyl-4-fluoro-3-methyl-1H-pyrazole-5-carboxamido)-3,4-dihydro-5-oxa-1,2a-diazaacenaphthylene-7-carboxamide] | 11.79 | 18.32 | > 50 | 
7 | CCn1nc(C)cc1C(=O)Nc1nc2cc(C(N)=O)cc(OCCCNC(=O)CN3CCOCC3)c2n1CCC[C@H]1COc2cc(C#N)cc3nc(NC(=O)c4cc(C)nn4CC)n1c23 [Example 47, (S)-1-(3-(7-cyano-2-(1-ethyl-3-methyl-1H-pyrazole-5-carboxamido)-3,4-dihydro-5-oxa-1,2a-diazaacenaphthylen-3-yl)propyl)-2-(1-ethyl-3-methyl-1H-pyrazole-5-carboxamido)-7-(3-(2-morpholinoacetamido)propoxy)-1H-benzo[d]imidazole-5-carboxamide] | 9.80 | 9.16 |  | hIFNβ ELISA (EC50, μM) (STING; THP1 cells; 24 h incubation; IFN-β in supernatant; top dose set according to solubility): inactive
8 | CCn1nc(C)cc1C(=O)Nc1nc2cc(C(N)=O)cc3c2n1[C@@H](CCCn1c(NC(=O)c2cc(C)nn2CCF)nc2cc(C(N)=O)cc(OCCCOC)c21)CO3 [Example 12, (S)-3-(3-(5-carbamoyl-2-(1-(2-fluoroethyl)-3-methyl-1H-pyrazole-5-carboxamido)-7-(3-methoxypropoxy)-1H-benzo[d]imidazol-1-yl)propyl)-2-(1-ethyl-3-methyl-1H-pyrazole-5-carboxamido)-3,4-dihydro-5-oxa-1,2a-diazaacenaphthylene-7-carboxamide] |  |  | > 9.1 | Fold change related to DMSO control WT (STING WT variant [3]; [6]): 1.89; Fold change related to DMSO control HAQ (STING HAQ variant [4]; [7]): 26.28
9 | CCn1nc(C)cc1C(=O)Nc1nc2cc(C(N)=O)cc(OC)c2n1CCC[C@H]1COc2cc(C(N)=O)cc3nc(NC(=O)c4cc(C)nn4CC)n1c23 [Example 5, (S)-3-(3-(5-carbamoyl-2-(1-ethyl-3-methyl-1H-pyrazole-5-carboxamido)-7-methoxy-1H-benzo[d]imidazol-1-yl)propyl)-2-(1-ethyl-3-methyl-1H-pyrazole-5-carboxamido)-3,4-dihydro-5-oxa-1,2a-diazaacenaphthylene-7-carboxamide] |  |  | 3.7 | Fold change related to DMSO control WT (STING WT variant [3]; compound 22.1 uM): 1.41; Fold change related to DMSO control HAQ (STING HAQ variant [4]; compound 22.1 uM): 22.85
10 | CCn1nc(C)cc1C(=O)Nc1nc2cc(C(N)=O)cc(OCCCN)c2n1CCC[C@H]1COc2cc(C(N)=O)cc3nc(NC(=O)c4cc(C)nn4CC)n1c23.Cl [Example 14, (S)-3-(3-(7-(3-aminopropoxy)-5-carbamoyl-2-(1-ethyl-3-methyl-1H-pyrazole-5-carboxamido)-1H-benzo[d]imidazol-1-yl)propyl)-2-(1-ethyl-3-methyl-1H-pyrazole-5-carboxamido)-3,4-dihydro-5-oxa-1,2a-diazaacenaphthylene-7-carboxamide] |  |  |  | Fold change related to DMSO control WT (STING WT variant [3]; [6]): 2.17; Fold change related to DMSO control HAQ (STING HAQ variant [4]; [7]): 16.68; EC50 (STING; read-out: hIFNβ ELISA (EC50); THP1 cells; 24 h incubation; IFN-β in supernatant; top dose set according to solubility): > 13.7 µM
11 | CCn1nc(C)cc1C(=O)Nc1nc2cc(C(N)=O)cc(OCCNC)c2n1CCC[C@H]1COc2cc(C(N)=O)cc3nc(NC(=O)c4cc(C)nn4CC)n1c23 [Example 16, (S)-3-(3-(5-carbamoyl-2-(1-ethyl-3-methyl-1H-pyrazole-5-carboxamido)-7-(2-(methylamino)ethoxy)-1H-benzo[d]imidazol-1-yl)propyl)-2-(1-ethyl-3-methyl-1H-pyrazole-5-carboxamido)-3,4-dihydro-5-oxa-1,2a-diazaacenaphthylene-7-carboxamide] |  |  | > 17.9 | Fold change related to DMSO control WT (STING WT variant [3]; [6]): 2.07; Fold change related to DMSO control HAQ (STING HAQ variant [4]; [7]): 20.47
